Results published in PubChem BioAssay AID1845213 (Molecular Pharmacology Branch, DTP, NCI, 2023).
Where “and” joins values, the source holds several entries; their conditions need not be identical. Equal entries are not always repeated. Calls of active or inactive are those of the source. Rule for the calls: active = viability on the fitted dose curve at most 10% of control; inactive = the rest.

Test system: NCI-H841 complex tumor spheroid viability
Experiment: Anticancer human tumor NCI-H841 cell line growth inhibition;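 for IC50: spheroids exposed to compounds for 7 days before readout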;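 for viability, T/C: spheroids exposed to compounds for 7 days before readout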
Conditions: for viability, T/C: stronger effect = lower value
From the text: Multicellular complex tumor spheroid response to DNA repair inhibitors in combination with DNA-damaging drugs
This study explores the anticancer activities of DNA-damaging drugs and inhibitors of DNA damage repair, both as single agents and in combinations. Complex tumor spheroids comprised of malignant cells, endothelial cells and mesenchymal stem cells served as an in vitro model for human solid tumors. This model system incorporates physiologically relevant features and patient-derived or established malignant cell lines with clinically relevant genetic alterations from many tumor types. Twenty-six patient-derived or established malignant cell lines were evaluated representing sarcoma, melanoma, small cell lung cancer (SCLC), non-small cell lung cancer (NSCLC), as well as bladder, ovarian and pancreatic cancers. The concentration ranges selected for each drug and investigational agent were based upon clinically achievable concentrations if the clinical Cmax of the agent was known.
Compounds. The drugs and compounds olaparib (NSC753686), talazoparib (NSC767125), berzosertib (NSC777718), elimusertib (NSC800525), nedisertib (NSC802822), VX-984 (NSC792969), AZD-1390 (NSC803789), temozolomide (NSC362856), topotecan (NSC609699), trabectedin (NSC813783), staurosporine (NSC755774), and gemcitabine (NSC613327) were obtained from the National Cancer Institute (NCI) Developmental Therapeutics Program Chemical Repository. The FDA-approved anticancer drug set is available from the Developmental Therapeutics Program at https://dtp.cancer.gov/organization/dscb/obtaining/available_plates.htm. […] The stock solutions were prepared in dimethyl sulfoxide (DMSO, Sigma-Aldrich, St. Louis, MO, cat. D2650) at 400-fold the tested concentration and stored at -70 degrees C. Prior to their use, the stock solutions were diluted in fresh medium and the final DMSO concentration in the assay was 0.25% (v/v). All drugs and investigational agents were tested over a range starting from a high concentration at or near the clinical Cmax and decreasing in half-log increments. If the clinical Cmax for an agent had not been determined, the highest concentration tested was 10 microM.
Cell Lines. The patient-derived cancer cell (PDC) lines: 156681-154-R-J1-PDC, 283228-195-R-J1-PDC, 287954-098-R-J1-PDC, 292921-168-R-J2-PDC, 349418-098-R-PDC, 425362-245-T-J1-PDC, 556581-035-R-J1-PDC, and BL0293-F563-PDC were received from the NCI Patient-Derived Models Repository (PDMR, https://pdmr.cancer.gov). The established cell lines HS-SY-2 (RRID:CVCL_8719), MPNST, and SYO-1 (RRID:CVCL_7146) were obtained from the Sloan Kettering Institute. The alveolar soft parts sarcoma cell line ASPS-1 (RRID:CVCL_S738) was established at the NCI and grown from internal seed stocks. The following established cell lines were purchased from the American Type Culture Collection (ATCC, Manassas, VA): G-401 (ATCC, cat. CRL-1441, RRID:CVCL_0270), SW982 (ATCC, cat. HTB-93, RRID:CVCL_1734), VA-ES-BJ (ATCC, cat. CRL-2138, RRID:CVCL_1785), NCI-H719 (ATCC, cat. CRL-5837, RRID:CVCL_1582), NCI-H196 (ATCC, cat. CRL-5823, RRID:CVCL_1509), NCI-H841 (ATCC, cat. CRL-5845, RRID:CVCL_1595), NCI-H1618 (ATCC, cat. CRL-5879, RRID:CVCL_1480), NCI-H1876 (ATCC, cat. CRL-5902, RRID:CVCL_1503), DMS 114 (ATCC, cat. CRL-2066; RRID:CVCL_1174), NCI-H211 (ATCC, cat. CRL-5824; RRID:CVCL_1529), and SW 1271 (ATCC, cat. CRL-2177, RRID:CVCL_1716). The small cell lung cancer cell line COR-L88 was purchased from Sigma-Aldrich (cat. 92031917-1VL, RRID:CVCL_1141). The non-small cell lung cancer cell lines NCI-H226 (RRID:CVCL_1544) and NCI-H322M (RRID:CVCL_1557) were established at the NCI and grown from internal seed stocks. Pooled donor human umbilical vein endothelial cells (HUVEC, Lonza, cat. CC-2519) and human mesenchymal stem cells (hMSC, Lonza, cat. PT-2501) were purchased from Lonza (Walkersville, MD).
Cell Culture. All cells were maintained in an incubator at 37 degrees C and 5% CO2 with 95% humidity. […]

[1] = curve of first compound, second compound 1 µM
[2] = curve of first compound, second compound 3.16 µM
[3] = curve of first compound, second compound 10 µM
[4] = curve of first compound, second compound 31.6 µM
[5] = curve of first compound, second compound 100 µM

**Q.** How did the viability, T/C (compound 0.00949 µM) turn out when `CNCc1ccc(-c2cc(-c3nc(-c4ccc(S(=O)(=O)C(C)C)cc4)cnc3N)on2)cc1` was run?
**A.** 100% (2×) and 97.3%

**Q.** What about the viability, T/C (compound 0.03 µM) of the same compound?
**A.** 94.6% and 98.1% and 99.8%

**Q.** What about the viability, T/C (compound 0.0949 µM) of the same compound?
**A.** 28.9% and 81.8% and 95.3%

**Q.** And the viability, T/C (compound 0.3 µM)?
**A.** 25.2% and 24% and 63.7%

**Q.** And the viability, T/C (compound 0.949 µM)?
**A.** 6.79% and 3.39% and 9.67%

**Q.** And the viability, T/C (compound 3 µM)?
**A.** 3.17% and 1.05% and 2.03%

**Q.** What about the IC50 (curve of compound) of the same compound?
**A.** 66 nM and 179 nM and 400 nM

**Q.** What does the source list for `Cc1sc2c(c1C)C(c1ccc(Cl)cc1)=NC(CC(=O)Nc1ccc(O)cc1)c1nnc(C)n1-2` (configuration not stated) + Cn1nnc2c(C(N)=O)ncn2c1=O?
**A.** IC50 [1]: 375 nM; IC50 [2]: 409 nM; IC50 [3]: 384 nM; IC50 [4]: 361 nM; IC50 [5]: 267 nM; viability, T/C (second compound 1 µM, first compound 0.00949 µM): 98.5%; viability, T/C (second compound 1 µM, first compound 0.03 µM): 101%; viability, T/C (second compound 1 µM, first compound 0.0949 µM): 74.8%; viability, T/C (second compound 1 µM, first compound 0.3 µM): 59.8%; viability, T/C (second compound 1 µM, first compound 0.949 µM): 24.3%; viability, T/C (second compound 1 µM, first compound 3 µM): 6.54%; viability, T/C (second compound 3.16 µM, first compound 0.00949 µM): 105%; viability, T/C (second compound 3.16 µM, first compound 0.03 µM): 98%; viability, T/C (second compound 3.16 µM, first compound 0.0949 µM): 88.9%; viability, T/C (second compound 3.16 µM, first compound 0.3 µM): 59.1%; viability, T/C (second compound 3.16 µM, first compound 0.949 µM): 24.7%; viability, T/C (second compound 3.16 µM, first compound 3 µM): 5.5%; viability, T/C (second compound 10 µM, first compound 0.00949 µM): 102%; outcome (second compound 10 µM, first compound 0.03 µM): inactive; viability, T/C (second compound 10 µM, first compound 0.0949 µM): 87.8%; viability, T/C (second compound 10 µM, first compound 0.3 µM): 61.5%; viability, T/C (second compound 10 µM, first compound 0.949 µM): 14.4%; viability, T/C (second compound 10 µM, first compound 3 µM): 4.47%; viability, T/C (second compound 31.6 µM, first compound 0.00949 µM): 102%; viability, T/C (second compound 31.6 µM, first compound 0.03 µM): 98.2%; outcome (second compound 31.6 µM, first compound 0.0949 µM): inactive; viability, T/C (second compound 31.6 µM, first compound 0.3 µM): 57.3%; viability, T/C (second compound 31.6 µM, first compound 0.949 µM): 12.6%; viability, T/C (second compound 31.6 µM, first compound 3 µM): 2.27%; viability, T/C (second compound 100 µM, first compound 0.00949 µM): 101%; viability, T/C (second compound 100 µM, first compound 0.03 µM): 99.8%; viability, T/C (second compound 100 µM, first compound 0.0949 µM): 82.6%; viability, T/C (second compound 100 µM, first compound 0.3 µM): 49%; viability, T/C (second compound 100 µM, first compound 0.949 µM): 5.34%; viability, T/C (second compound 100 µM, first compound 3 µM): 1.69%

**Q.** How did the IC50 [1] turn out when `COc1ccc([C@@H](O)c2cc(-c3ncnc4cc(N5CCOCC5)ccc34)c(F)cc2Cl)nn1` + Cn1nnc2c(C(N)=O)ncn2c1=O was run?
**A.** 2040 nM

**Q.** What about the IC50 [2] of the same compound?
**A.** 2010 nM

**Q.** And the IC50 [3]?
**A.** 2050 nM

**Q.** And the IC50 [4]?
**A.** 2270 nM

**Q.** What about the IC50 [5] of the same compound?
**A.** 1820 nM

**Q.** What about the viability, T/C (second compound 1 µM, first compound 0.0316 µM) of the same compound?
**A.** 100%

**Q.** What about the viability, T/C (second compound 1 µM, first compound 0.1 µM) of the same compound?
**A.** 99.1%

**Q.** And the viability, T/C (second compound 1 µM, first compound 0.316 µM)?
**A.** 92.7%

**Q.** What about the outcome (second compound 1 µM, first compound 1 µM) of the same compound?
**A.** inactive

**Q.** And the viability, T/C (second compound 1 µM, first compound 3.16 µM)?
**A.** 36%

**Q.** And the viability, T/C (second compound 1 µM, first compound 10 µM)?
**A.** 7.89%

**Q.** What about the viability, T/C (second compound 3.16 µM, first compound 0.0316 µM) of the same compound?
**A.** 102%

**Q.** And the viability, T/C (second compound 3.16 µM, first compound 0.1 µM)?
**A.** 104%

**Q.** What about the viability, T/C (second compound 3.16 µM, first compound 0.316 µM) of the same compound?
**A.** 97.1%

**Q.** What about the viability, T/C (second compound 3.16 µM, first compound 1 µM) of the same compound?
**A.** 70.7%

**Q.** And the viability, T/C (second compound 3.16 µM, first compound 3.16 µM)?
**A.** 36.4%

**Q.** What about the viability, T/C (second compound 3.16 µM, first compound 10 µM) of the same compound?
**A.** 8.99%

**Q.** What about the viability, T/C (second compound 10 µM, first compound 0.0316 µM) of the same compound?
**A.** 103%

**Q.** And the viability, T/C (second compound 10 µM, first compound 0.1 µM)?
**A.** 105%

**Q.** And the viability, T/C (second compound 10 µM, first compound 0.316 µM)?
**A.** 91%

**Q.** What about the viability, T/C (second compound 10 µM, first compound 1 µM) of the same compound?
**A.** 80.1%

**Q.** What about the viability, T/C (second compound 10 µM, first compound 3.16 µM) of the same compound?
**A.** 32.1%

**Q.** What about the viability, T/C (second compound 10 µM, first compound 10 µM) of the same compound?
**A.** 9.08%

**Q.** What about the viability, T/C (second compound 31.6 µM, first compound 0.0316 µM) of the same compound?
**A.** 97.5%

**Q.** And the viability, T/C (second compound 31.6 µM, first compound 0.1 µM)?
**A.** 99.7%

**Q.** What about the viability, T/C (second compound 31.6 µM, first compound 0.316 µM) of the same compound?
**A.** 95.3%

**Q.** What about the viability, T/C (second compound 31.6 µM, first compound 1 µM) of the same compound?
**A.** 79.3%

**Q.** What about the viability, T/C (second compound 31.6 µM, first compound 3.16 µM) of the same compound?
**A.** 38.1%

**Q.** And the viability, T/C (second compound 31.6 µM, first compound 10 µM)?
**A.** 8.74%

**Q.** And the viability, T/C (second compound 100 µM, first compound 0.0316 µM)?
**A.** 97.5%

**Q.** And the viability, T/C (second compound 100 µM, first compound 0.1 µM)?
**A.** 100%

**Q.** What about the viability, T/C (second compound 100 µM, first compound 0.316 µM) of the same compound?
**A.** 87%

**Q.** What about the viability, T/C (second compound 100 µM, first compound 1 µM) of the same compound?
**A.** 71%

**Q.** What about the viability, T/C (second compound 100 µM, first compound 3.16 µM) of the same compound?
**A.** 31.5%

**Q.** And the viability, T/C (second compound 100 µM, first compound 10 µM)?
**A.** 7.13%
